Experimental data as given in patent US10532986B2, “Cyclic compound acting as PDE4 inhibitor” (MEDSHINE DISCOVERY INC., priority 2016, dated 2020).

Target: T1, Recombinant human PDE4B (Homo sapiens, UniProt Q07343)
T1 construct: amino acid 305-end; GST (N); made in house; host or cells: Sf9 insect cells (baculovirus)
Test: Inhibitory activity of the compounds against PDE 4B (fluorescence polarization, Transcreener AMP2/GMP2)
Assay type: biochemical
Conditions: recombinant human PDE4B (aa 305-end, GST tag); 1 μM cAMP; 1 hour at room temperature
Procedure: Inhibitory activity of the compounds against PDE 4B
The assay is based on the fluorescence polarization measuring AMP/GMP production as a result of the enzyme activity by displacement of Tracer binding to the AMP/GMP antibody.
10 mM Tris-HCl (pH 7.5), 5 mM MgCl2, 0.01% Brij 35, 1 mM DTT and 1% DMSO.
Recombinant human PDE4B (Gene accession number: NM_002600; amino acid 305-end) was expressed by baculovirus in Sf9 insect cells using an N-terminal GST tag. MW=78 kDa.
Transcreener® AMP^2/GMP^2 antibody and AMP^2/GMP^2 AlexaFluor 633 tracer
i) Recombinant human PDE4B and the enzyme substrate (1 μM cAMP) were dissolved in the newly-prepared buffer solution, respectively.
ii) The PDE4B buffer solution defined as above was transferred into the reaction wells.
iii) The compound which was dissolved in 100% DMSO was added to the reaction wells of the PDE4B buffer solution by Acoustic technology (Echo550; nanoliter range) and incubated at room temperature for 10 minutes.
iv) The enzymatic buffer solution was then added to the reaction wells defined as above to initiate the reaction.
v) The reaction was incubated at room temperature for 1 hour.
vi) The reaction was terminated by adding detecting mixture (Transcreener® AMP^2/GMP^2 antibody and AMP^2/GMP^2 AlexaFluor 633 tracer) and incubated for 90 minutes with gentle mixing. The measurement range of fluorescence polarization is Ex/Em=620/688.
The fluorescence polarization signal was converted into nM based on the AMP/GMP standard curve and the percent enzyme activity relative to DMSO calculated by Excel. GraphPad Prism was used to plot the curves (Drawing Medicine Icon)

T1 sequence (Q07343 305-736 limits assumed): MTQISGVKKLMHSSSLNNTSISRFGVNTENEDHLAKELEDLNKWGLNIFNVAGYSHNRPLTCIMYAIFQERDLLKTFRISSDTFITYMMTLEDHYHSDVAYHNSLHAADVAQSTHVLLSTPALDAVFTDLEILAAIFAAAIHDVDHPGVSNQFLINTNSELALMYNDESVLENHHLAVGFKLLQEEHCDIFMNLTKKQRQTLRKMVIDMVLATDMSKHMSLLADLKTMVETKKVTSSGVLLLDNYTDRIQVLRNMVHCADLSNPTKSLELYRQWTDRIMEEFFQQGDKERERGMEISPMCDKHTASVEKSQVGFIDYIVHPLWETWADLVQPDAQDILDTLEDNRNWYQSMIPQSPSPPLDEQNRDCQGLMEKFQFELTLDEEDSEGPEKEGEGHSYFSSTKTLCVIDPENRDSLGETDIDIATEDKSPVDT

Compound	IC50 [nM]
CCOc1cc([C@@H](CS(C)(=O)=O)n2c(=O)n(C)c3cc(-c4ccccc4F)ccc32)ccc1OC [WX068]	0.707
CCOc1cc([C@@H](CS(C)(=O)=O)n2c(=O)n(CC)c3cc(-c4ccccc4F)ccc32)ccc1OC [WX069]	0.477
CCOc1cc([C@@H](CS(C)(=O)=O)n2c(=O)n(C(C)C)c3cc(-c4ccccc4F)ccc32)ccc1OC [WX070]	1.25
CCOc1cc([C@@H](CS(C)(=O)=O)n2c(=O)n(CC#N)c3cc(-c4ccccc4F)ccc32)ccc1OC [WX071]	< 0.5
CCOC(=O)c1ccc2c(c1)n(CC(F)F)c(=O)n2[C@H](CS(C)(=O)=O)c1ccc(OC)c(OCC)c1 [WX072]	14.8
CCOC(=O)c1ccc2c(c1)n(CC(F)(F)F)c(=O)n2[C@H](CS(C)(=O)=O)c1ccc(OC)c(OCC)c1 [WX073]	31.8
CCOC(=O)c1ccc2c(c1)n(C)c(=O)n2[C@H](CS(C)(=O)=O)c1ccc(OC)c(OCC)c1 [WX074]	10.2
CCOc1cc(C(CS(C)(=O)=O)n2c(=O)[nH]c3cc(-c4ccccc4F)ccc32)ccc1OC(F)F (stereo not shown) [WX075]	0.68
COc1ccc(C(CS(C)(=O)=O)n2c(=O)[nH]c3cc(-c4ccccc4F)ccc32)cc1 (stereo not shown) [WX076]	21.8
CCOc1cc(C(CS(C)(=O)=O)n2c(=O)oc3cc(Br)ccc32)ccc1OC (stereo not shown) [WX077]	46.8
CCOc1cc([C@@H](CS(C)(=O)=O)n2c(=O)[nH]c3c(-c4cnn(C)c4)cccc32)ccc1OC [WX078]	0.822
CCOc1cc([C@@H](CS(C)(=O)=O)n2c(=O)[nH]c3c(C(C)C)cccc32)ccc1OC [WX079]	2.53
CCOc1cc([C@@H](CS(C)(=O)=O)n2c(=O)[nH]c3c(C4=CCOCC4)cccc32)ccc1OC [WX080]	1.03
CCOc1cc([C@@H](CS(C)(=O)=O)n2c(=O)[nH]c3c(C4CCOCC4)cccc32)ccc1OC [WX081]	1.38
CCOc1cc([C@@H](CS(C)(=O)=O)n2c(=O)[nH]c3c(-c4ccccc4OC)cccc32)ccc1OC [WX082]	< 0.5
CCOc1cc([C@@H](CS(C)(=O)=O)n2c(=O)[nH]c3c(-c4ccccc4C)cccc32)ccc1OC [WX083]	< 0.5

Compound	IC50 [nM]
CCOc1cc([C@@H](CS(C)(=O)=O)n2c(=O)[nH]c3c(-n4cccn4)cccc32)ccc1OC [WX084]	18.1
CCOc1cc([C@@H](CS(C)(=O)=O)n2c(=O)[nH]c3c(C(=O)N4CCCC4)cccc32)ccc1OC [WX085]	5.64
CCOc1cc([C@@H](CS(C)(=O)=O)n2c(=O)[nH]c3c(C(C)=O)cccc32)ccc1OC [WX086]	36.2
CCOc1cc([C@@H](CS(C)(=O)=O)n2c(=O)[nH]c3c(-c4ccccc4F)cccc32)ccc1OC [WX087]	1.29
CCOc1cc([C@@H](CS(C)(=O)=O)n2c(=O)[nH]c3c(-c4cccc(F)c4)cccc32)ccc1OC [WX088]	2.4
CCOc1cc([C@@H](CS(C)(=O)=O)n2c(=O)[nH]c3c(-c4ccc(F)cc4)cccc32)ccc1OC [WX089]	2.52
CCOc1cc([C@@H](CS(C)(=O)=O)n2c(=O)[nH]c3c(-c4ccccc4)cccc32)ccc1OC [WX090]	0.341
CCOc1cc([C@@H](CS(C)(=O)=O)n2c(=O)[nH]c3c(C4CC4)cccc32)ccc1OC [WX091]	3.98
C=C(C)c1cccc2c1[nH]c(=O)n2[C@H](CS(C)(=O)=O)c1ccc(OC)c(OCC)c1 [WX092]	2.15
CCOc1cc([C@@H](CS(C)(=O)=O)n2c(=O)[nH]c3c(-c4cccs4)cccc32)ccc1OC [WX093]	1.25
CCOc1cc([C@@H](CS(C)(=O)=O)n2c(=O)[nH]c3c(Cc4ccccc4F)cccc32)ccc1OC [WX094]	< 0.5
CCOc1cc([C@@H](CS(C)(=O)=O)n2c(=O)[nH]c3c(-c4nccs4)cccc32)ccc1OC [WX095]	6.58
CCOc1cc([C@@H](CS(C)(=O)=O)n2c(=O)[nH]c3c(-c4ncc(F)cn4)cccc32)ccc1OC [WX096]	7.3
CCOc1cc([C@@H](CS(C)(=O)=O)n2c(=O)[nH]c3c(-c4ncccc4F)cccc32)ccc1OC [WX097]	5.04
CCOC(=O)c1cccc2c1[nH]c(=O)n2[C@H](CS(C)(=O)=O)c1ccc(OC)c(OCC)c1 [WX098]	18.1
